According to the supplement of paper PMC9663587:

Legend:
BSJ-03-123 = compound: CC(=O)c1c(C)c2cnc(Nc3ccc(N4CCN(CCOCCOCCOCCNC(=O)COc5cccc6c5C(=O)N(C5CCC(=O)NC5=O)C6=O)CC4)cn3)nc2n(C2CCCC2)c1=O [BSJ-03-123]; assay: increase in dead-cell fraction, 72 h; higher = more death;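 note: breast cancer cell lines in 384-well plates, stained with Hoechst plus LIVE/DEAD far red dye and imaged, cells above an LDR intensity threshold counted dead, Hoechst-negative corpses included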
YKL-5-124 = compound: C=CC(=O)Nc1ccc(C(=O)Nc2[nH]nc3c2CN(C(=O)N[C@H](CN(C)C)c2ccccc2)C3(C)C)cc1 [YKL-5-124]; assay: as above
[1] = compound: CCc1cnn2c(NCc3ccc[n+]([O-])c3)cc(N3CCCC[C@H]3CCO)nc12; assay: as above
THZ531 = compound: CN(C)C/C=C/C(=O)Nc1ccc(C(=O)N2CCC[C@@H](Nc3ncc(Cl)c(-c4c[nH]c5ccccc45)n3)C2)cc1 [THZ531]; assay: as above
Flavopiridol = compound: CN1CC[C@H](c2c(O)cc(O)c3c(=O)cc(-c4ccccc4Cl)oc23)[C@H](O)C1 [Flavopiridol]; assay: as above
Neratinib/HKI272 = compound: CCOc1cc2ncc(C#N)c(Nc3ccc(OCc4ccccn4)c(Cl)c3)c2cc1NC(=O)/C=C/CN(C)C [Neratinib/HKI272]; assay: as above
THZ1 = compound: CN(C)C/C=C/C(=O)Nc1ccc(C(=O)Nc2cccc(Nc3ncc(Cl)c(-c4c[nH]c5ccccc45)n3)c2)cc1 [THZ1]; assay: as above
[2] = compound: CC(=O)c1c(C)c2cnc(Nc3ccc(N4CCNCC4)cn3)nc2n(C2CCCC2)c1=O; assay: as above
LEE011/Ribociclib [3] = compound: T1, CN(C)C(=O)c1cc2cnc(Nc3ccc(N4CCNCC4)cn3)nc2n1C1CCCC1 [LEE011/Ribociclib]; assay: as above
[4] = compound: CCN1CCN(Cc2ccc(Nc3ncc(F)c(-c4cc(F)c5nc(C)n(C(C)C)c5c4)n3)nc2)CC1; assay: as above
Pictilisib/GDC0941 = compound: CS(=O)(=O)N1CCN(Cc2cc3nc(-c4cccc5[nH]ncc45)nc(N4CCOCC4)c3s2)CC1 [Pictilisib/GDC0941]
[5] = compound: CCc1cnn2c(NCc3ccc[n+]([O-])c3)cc(N3CCCC[C@H]3CCO)nc12
Doxorubicin = compound: COc1cccc2c1C(=O)c1c(O)c3c(c(O)c1C2=O)C[C@@](O)(C(=O)CO)C[C@@H]3O[C@H]1C[C@H](N)[C@H](O)[C@H](C)O1 [Doxorubicin]
Ceritinib/LDK378 = compound: Cc1cc(Nc2ncc(Cl)c(Nc3ccccc3S(=O)(=O)C(C)C)n2)c(OC(C)C)cc1C1CCNCC1 [Ceritinib/LDK378]
[6] = compound: Cc1nn(C)c(COc2ccc(N3CCN(S(=O)(=O)N(C)C)CC3)cc2)c1-c1cccc2c(CCCOc3cccc4ccccc34)c(C(=O)O)n(CCN3CCOCC3)c12
LEE011/Ribociclib [7] = compound: T1, LEE011/Ribociclib
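Throughout, for GR50, 72 h: breast cancer and non-malignant breast epithelial cell lines, Deep Dye Drop or Dye Drop imaging, nine half-log doses, GR normalized to time-zero plates and DMSO-only controls.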

## HCC70
BSJ-03-123; 0.001 µM
  increase in dead-cell fraction: -0.0022
BSJ-03-123; 0.003162 µM
  increase in dead-cell fraction: -0.0076
BSJ-03-123; 0.01 µM
  increase in dead-cell fraction: -0.0082
BSJ-03-123; 0.03162 µM
  increase in dead-cell fraction: -0.0024
BSJ-03-123; 0.1 µM
  increase in dead-cell fraction: 0.0042
BSJ-03-123; 0.3162 µM
  increase in dead-cell fraction: -0.0019
BSJ-03-123; 1 µM
  increase in dead-cell fraction: -0.0038
BSJ-03-123; 3.162 µM
  increase in dead-cell fraction: 0.0046
BSJ-03-123; 10 µM
  increase in dead-cell fraction: 0.317
YKL-5-124; 0.001 µM
  increase in dead-cell fraction: 0.0881
YKL-5-124; 0.003162 µM
  increase in dead-cell fraction: 0.0945
YKL-5-124; 0.01 µM
  increase in dead-cell fraction: 0.148
YKL-5-124; 0.03162 µM
  increase in dead-cell fraction: 0.205
YKL-5-124; 0.1 µM
  increase in dead-cell fraction: 0.254
YKL-5-124; 0.3162 µM
  increase in dead-cell fraction: 0.285
YKL-5-124; 1 µM
  increase in dead-cell fraction: 0.376
YKL-5-124; 3.162 µM
  increase in dead-cell fraction: 0.41
YKL-5-124; 10 µM
  increase in dead-cell fraction: 0.726
[1]; 0.0001 µM
  increase in dead-cell fraction: 0.0046
[1]; 0.0003162 µM
  increase in dead-cell fraction: 0.0037
[1]; 0.001 µM
  increase in dead-cell fraction: -0.003
[1]; 0.003162 µM
  increase in dead-cell fraction: -0.0058
[1]; 0.01 µM
  increase in dead-cell fraction: 0.0306
[1]; 0.03162 µM
  increase in dead-cell fraction: 0.699
[1]; 0.1 µM
  increase in dead-cell fraction: 0.734
[1]; 0.3162 µM
  increase in dead-cell fraction: 0.721
[1]; 1 µM
  increase in dead-cell fraction: 0.74
THZ531; 0.0001 µM
  increase in dead-cell fraction: -0.0083
THZ531; 0.0003162 µM
  increase in dead-cell fraction: 0.004
THZ531; 0.001 µM
  increase in dead-cell fraction: -0.0113
THZ531; 0.003162 µM
  increase in dead-cell fraction: -0.0062
THZ531; 0.01 µM
  increase in dead-cell fraction: -0.0005
THZ531; 0.03162 µM
  increase in dead-cell fraction: 0.0092
THZ531; 0.1 µM
  increase in dead-cell fraction: 0.227
THZ531; 0.3162 µM
  increase in dead-cell fraction: 0.623
THZ531; 1 µM
  increase in dead-cell fraction: 0.805
Flavopiridol; 0.0001 µM
  increase in dead-cell fraction: -0.003
Flavopiridol; 0.0003162 µM
  increase in dead-cell fraction: -0.0033
Flavopiridol; 0.001 µM
  increase in dead-cell fraction: -0.0119
Flavopiridol; 0.003162 µM
  increase in dead-cell fraction: -0.0038
Flavopiridol; 0.01 µM
  increase in dead-cell fraction: 0.0008
Flavopiridol; 0.03162 µM
  increase in dead-cell fraction: 0.009
Flavopiridol; 0.1 µM
  increase in dead-cell fraction: 0.0351
Flavopiridol; 0.3162 µM
  increase in dead-cell fraction: 0.487
Flavopiridol; 1 µM
  increase in dead-cell fraction: 0.401
Neratinib/HKI272; 0.0003162 µM
  increase in dead-cell fraction: 0.0098
Neratinib/HKI272; 0.001 µM
  increase in dead-cell fraction: 0.0142
Neratinib/HKI272; 0.003162 µM
  increase in dead-cell fraction: 0.015
Neratinib/HKI272; 0.01 µM
  increase in dead-cell fraction: 0.0157
Neratinib/HKI272; 0.03162 µM
  increase in dead-cell fraction: 0.0249
Neratinib/HKI272; 0.1 µM
  increase in dead-cell fraction: 0.0312
Neratinib/HKI272; 0.3162 µM
  increase in dead-cell fraction: 0.0482
Neratinib/HKI272; 1 µM
  increase in dead-cell fraction: 0.0703
Neratinib/HKI272; 3.162 µM
  increase in dead-cell fraction: 0.147
THZ1; 0.0001 µM
  increase in dead-cell fraction: 0.0011
THZ1; 0.0003162 µM
  increase in dead-cell fraction: 0.0017
THZ1; 0.001 µM
  increase in dead-cell fraction: -0.0087
THZ1; 0.003162 µM
  increase in dead-cell fraction: 0.0017
THZ1; 0.01 µM
  increase in dead-cell fraction: 0.0017
THZ1; 0.03162 µM
  increase in dead-cell fraction: 0.227
THZ1; 0.1 µM
  increase in dead-cell fraction: 0.676
THZ1; 0.3162 µM
  increase in dead-cell fraction: 0.872
THZ1; 1 µM
  increase in dead-cell fraction: 0.868
[2]; 0.0003162 µM
  increase in dead-cell fraction: -0.0042
[2]; 0.001 µM
  increase in dead-cell fraction: 0.0102
[2]; 0.003162 µM
  increase in dead-cell fraction: -0.0045
[2]; 0.01 µM
  increase in dead-cell fraction: 0.0054
[2]; 0.03162 µM
  increase in dead-cell fraction: -0.0062
[2]; 0.1 µM
  increase in dead-cell fraction: 0.012
[2]; 0.3162 µM
  increase in dead-cell fraction: -0.0151
[2]; 1 µM
  increase in dead-cell fraction: -0.0002
[2]; 3.162 µM
  increase in dead-cell fraction: -0.0047
LEE011/Ribociclib [3]; 0.001 µM
  increase in dead-cell fraction: -0.0029
LEE011/Ribociclib [3]; 0.003162 µM
  increase in dead-cell fraction: 0.0024
LEE011/Ribociclib [3]; 0.01 µM
  increase in dead-cell fraction: -0.0096
LEE011/Ribociclib [3]; 0.03162 µM
  increase in dead-cell fraction: -0.0087
LEE011/Ribociclib [3]; 0.1 µM
  increase in dead-cell fraction: -0.0125
LEE011/Ribociclib [3]; 0.3162 µM
  increase in dead-cell fraction: -0.0098
LEE011/Ribociclib [3]; 1 µM
  increase in dead-cell fraction: -0.0021
LEE011/Ribociclib [3]; 3.162 µM
  increase in dead-cell fraction: -0.0069
LEE011/Ribociclib [3]; 10 µM
  increase in dead-cell fraction: -0.0152
[4]; 0.001 µM
  increase in dead-cell fraction: 0.0027
[4]; 0.003162 µM
  increase in dead-cell fraction: -0.0178
[4]; 0.01 µM
  increase in dead-cell fraction: -0.0021
[4]; 0.03162 µM
  increase in dead-cell fraction: -0.0067
[4]; 0.1 µM
  increase in dead-cell fraction: -0.0175
[4]; 0.3162 µM
  increase in dead-cell fraction: -0.0179
[4]; 1 µM
  increase in dead-cell fraction: -0.0058
[4]; 3.162 µM
  increase in dead-cell fraction: 0.169
[4]; 10 µM
  increase in dead-cell fraction: 0.639
Pictilisib/GDC0941
  GR50, 72 h: 0.161 µM
[5]
  GR50, 72 h: 0.0129 µM
Doxorubicin
  GR50, 72 h: 0.0108 µM
Ceritinib/LDK378
  GR50, 72 h: 3.19 µM
[6]
  GR50, 72 h: > 10 µM
LEE011/Ribociclib [7]
  GR50, 72 h: > 10 µM
